Test results reported in article PMC11952234, “Functional profiling of synthetic camel milk-derived peptides with implication in glucose transport and diabetes” (PLOS One, 2025).
Where “and” joins values, the source holds several entries; their conditions need not be identical. Equal values may be shown once. Read-outs that look alike come from different tables or passages of the source. Marks after values point to notes of the source that are not given here. Residues, ends and D or L forms follow the SMILES beside them.

Columns and labels:
[1] = molecular target: T1, insulin receptor (IR); interaction of IR-Rluc with IRS1-YFP in HEK293 cells (Homo sapiens, UniProt P06213); assay: BRET assay of IR activation (IR-Rluc/IRS1-YFP), single treatment, dose-response; format: cell-based; conditions: HEK293, 1 hour, 37°C, minimal data set for Figure 1, average
T1 construct: expressed in transfected cells; host or cells: HEK293 cells, transient co-transfection; plasmids provided by Dr. Tarik Issad (Cochin Institute, Paris)
Procedure: (§1) HepG2 and HEK293 cells were maintained at 37°C, 5% CO2 in complete RPMI and Dulbecco’s modified Eagle’s medium (DMEM), respectively, containing 0.3 mg/ml glutamine, 100 IU/ml penicillin, and 100 µg/ml streptomycin) supplemented with 10% fetal calf serum (Gibco, Carlsbad, CA, USA). The transient transfection in HEK293 cells was carried out in 75 cm flask containing 10^7 cells using Lipofectamine 2000 and 5 µg of IR-Rluc and 5 µg of IRS1-YFP (for BRET and phosphorylation experiments) as previously described. All assays were performed 48 hours post-transfection.
(§2) BRET technology was used for IR activation and its interaction with IRS1 as previously described. […] Following treatments, 10 μl of Coelenterazine h was added to a final concentration of 5 µ M and BRET measurements were carried out using the Tristar 2 multi-label plate reader (Berthold, Germany), allowing luminescence recording and signal integration at 480 nm and 540 nm.
(§3) Statistical analyses were performed statistical significance between the different treatments and conditions as indicated in the figures and tables and their captions. […] The significance is indicated in the figures by stars (****p-value < 0.0001, ***p-value < 0.001, ** p-value < 0.01, * p-value < 0.05), and the absence of stars means non-significant (p-value > 0.05). However, the two-way ANOVA was used for multiple comparisons to determine the statistical significance between the different peptides when compared to each other in the different assays as described in the tables.

[2] = tested on: insulin receptor (IR); insulin-induced IR-Rluc/IRS1-YFP BRET in HEK293 cells; assay: BRET assay of IR activation, peptides combined with insulin; format: cell-based, human; conditions: for insulin-induced BRET, % of insulin's response in the vehicle, Average: Average of Experiments 1-7; for insulin-induced BRET, % of insulin's response in the vehicle, Average / insulin-induced BRET, % of insulin's response in the vehicle / % of maximal BRET (insulin-induced): 1 μM insulin + 0.1 mg/ml peptide; for insulin-induced BRET, % of insulin's response in the vehicle, Average / insulin-induced BRET, % of insulin's response in the vehicle: HEK293, minimal data set for Figure 2; for % of maximal BRET (insulin-induced): 1 hour, 37°C, % of insulin's response in the vehicle taken as 100%, mean ± SD of five to seven independent experiments in triplicate; for profile on insulin-dependent BRET response in combined treatment (in words): compared to insulin alone (Vehicle)
Procedure: as §1, §2
as §3, with “For BRET, the data were normalized by taking as 100% of the maximal insulin-induced BRET signal in the vehicle and analyzed using GraphPad Prism software (San Diego, CA, USA). Statistical” for “Statistical”, “tables. In this case, the different letters indicate statistically significant effects (p-value < 0.05), while the same letters indicate no significant difference between the different treatments compared to each other.” for “tables.”

[3] = tested on: IR phosphorylation (pIR-Tyr1334) in HepG2 cells; assay: IR phosphorylation by western blot in HepG2 cells; format: cell-based, human; conditions: 1 μM insulin + 0.1 mg/ml peptide, 10 minutes, 37°C
Procedure: (§4) Following treatment, cells were then lysed with RIPA lysis buffer and thereafter centrifuged at 12000 × g for 30 minutes. Thereafter, the extracted cell lysate proteins were quantified using the bicinchoninic acid (BCA) protein assay. To examine the phosphorylation status of IR and AKT, 30-40 μg of proteins were loaded on 10% SDS-PAGE gel followed by western blot using the following antibodies: the mouse monoclonal anti-phospho-IR (pIR-Tyr1334)(1:1000 dilution) and the mouse monoclonal anti-phospho-AKT (pAKT-S473)(1:2000 dilution) as previously described. The corresponding total proteins loaded were also analyzed in parallel using the specific antibodies against the native forms of the different proteins. Densitometry analysis of the different western blots was performed using Image Studio Version 5.2 software from LICOR (Lincoln, Nebraska, USA).

HepG2 cells = assay: Glucose uptake assay (Glucose Uptake-Glo) in HepG2 cells; format: cell-based, human; conditions: 1 hour, 37°C; for glucose uptake, specific luminescence signal, Average: Average of Experiments 1-5, HepG2, 0.1 mg/ml peptide or 1 μM insulin, minimal data set for Figure 5; for % of glucose uptake: HepG2 cells, 0.1 mg/ml peptide or 1 μM insulin, % of insulin's response taken as 100%, mean ± SD of five independent experiments in triplicate
Procedure: Glucose uptake in HepG2 cells was carried out using Glucose Uptake-Glo Assay (Promega). For this, cells seeded in a 96-well white plate (50,000 cells/well) were first washed with PBS and starved in phenol red-, glucose-, and serum-free medium (Dulbecco’s modified Eagle’s medium containing 0.01 mM HEPES, 0.3 mg/ml glutamine, 100 IU/ml penicillin, and 100 µg/ml streptomycin). […] The treatment was removed, and the cells were washed once with PBS and then incubated with 50 μL/well of freshly prepared 2-deoxyglucose (500 μM) for 10 minutes at room temperature. The uptake process was stopped and neutralized, followed by the addition of 50 μl/well of 2-deoxyglucose-6-phosphate (2DG6P) detection reagent and incubation for 15-60 minutes at room temperature. The glucose-6-phosphate dehydrogenase (G6PDH) oxidizes 2DG6P to 6-phosphodeoxygluconate (6PDG) and reduces NADP + to NADPH. The reductase uses NADPH to convert the proluciferin to luciferin, which is then used by Ultra-Glo™ recombinant luciferase to produce luminescence. This luminescence, proportional to the amount of 2-deoxyglucose transported inside the cells upon treatment, was then measured using a 0.3–1 second integration on GloMax® Discover luminometer according to Glucose Uptake-Glo™ protocol.

[4] = tested on: AKT phosphorylation (pAKT-S473) in HepG2 cells; assay: AKT phosphorylation by western blot in HepG2 cells; format: cell-based, human; conditions: 1 μM insulin + 0.1 mg/ml peptide, 10 minutes, 37°C
Procedure: as §4

[5] = HEK293, read-out: BRET, % of the maximal response of insulin, Average, peptide 0.001 mg/ml
[6] = HEK293, read-out: BRET, % of the maximal response of insulin, Average, peptide 0.005 mg/ml
[7] = HEK293, read-out: BRET, % of the maximal response of insulin, Average, peptide 0.01 mg/ml
[8] = HEK293, read-out: BRET, % of the maximal response of insulin, Average, peptide 0.05 mg/ml
[9] = HEK293, read-out: BRET, % of the maximal response of insulin, Average, peptide 0.1 mg/ml
[10] = HEK293, read-out: BRET, % of the maximal response of insulin, Average, peptide 0.5 mg/ml
[11] = HEK293, read-out: BRET, % of the maximal response of insulin, Average, peptide 1 mg/ml
[12] = HEK293 cells, 0.1 mg/ml peptide + 1 μM insulin

T1 sequence (P06213 28-758 limits assumed): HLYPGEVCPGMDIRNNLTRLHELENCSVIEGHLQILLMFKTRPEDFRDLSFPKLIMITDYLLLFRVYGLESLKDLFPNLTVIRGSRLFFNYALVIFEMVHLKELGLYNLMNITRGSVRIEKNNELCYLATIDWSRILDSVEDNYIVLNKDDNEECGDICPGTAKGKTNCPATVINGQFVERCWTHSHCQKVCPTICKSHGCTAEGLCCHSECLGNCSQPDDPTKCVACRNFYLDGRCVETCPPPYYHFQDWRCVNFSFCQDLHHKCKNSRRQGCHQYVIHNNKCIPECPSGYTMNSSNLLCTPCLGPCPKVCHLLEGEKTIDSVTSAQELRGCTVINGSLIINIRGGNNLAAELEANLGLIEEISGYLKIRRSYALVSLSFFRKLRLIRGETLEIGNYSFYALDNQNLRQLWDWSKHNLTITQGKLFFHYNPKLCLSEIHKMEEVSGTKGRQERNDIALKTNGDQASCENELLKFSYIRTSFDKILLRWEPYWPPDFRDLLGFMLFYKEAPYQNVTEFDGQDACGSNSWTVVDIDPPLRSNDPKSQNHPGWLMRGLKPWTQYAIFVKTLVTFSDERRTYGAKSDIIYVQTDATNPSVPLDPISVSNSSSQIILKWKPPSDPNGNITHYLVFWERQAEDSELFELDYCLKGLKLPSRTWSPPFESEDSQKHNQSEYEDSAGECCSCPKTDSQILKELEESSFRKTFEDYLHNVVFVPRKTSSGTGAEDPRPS
T1 sequence (P06213 763-1382 limits assumed): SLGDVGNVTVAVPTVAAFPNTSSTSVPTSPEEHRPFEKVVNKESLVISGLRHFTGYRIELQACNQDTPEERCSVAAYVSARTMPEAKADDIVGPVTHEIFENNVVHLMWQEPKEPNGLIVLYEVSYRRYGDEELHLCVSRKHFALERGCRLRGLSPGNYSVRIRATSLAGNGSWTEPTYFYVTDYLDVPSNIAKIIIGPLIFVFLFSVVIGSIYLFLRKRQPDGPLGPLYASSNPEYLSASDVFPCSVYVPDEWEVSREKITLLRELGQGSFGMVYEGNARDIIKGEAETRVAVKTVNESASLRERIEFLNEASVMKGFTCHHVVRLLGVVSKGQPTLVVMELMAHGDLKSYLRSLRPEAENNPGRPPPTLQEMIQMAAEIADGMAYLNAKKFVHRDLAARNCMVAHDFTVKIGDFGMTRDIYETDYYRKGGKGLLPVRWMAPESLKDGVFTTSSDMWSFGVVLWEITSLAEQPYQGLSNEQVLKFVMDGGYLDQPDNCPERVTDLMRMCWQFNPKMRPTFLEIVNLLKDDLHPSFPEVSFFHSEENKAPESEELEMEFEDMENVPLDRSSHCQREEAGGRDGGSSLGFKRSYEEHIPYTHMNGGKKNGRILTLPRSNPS

SMILES	Emax [1, 5] [%]	Emax [1, 6] [%]	Emax [1, 7] [%]	Emax [1, 8] [%]	Emax [1, 9] [%]	Emax [1, 10] [%]	Emax [1, 11] [%]	insulin-induced BRET, % of insulin's response in the vehicle, Average [2]	insulin-induced BRET, % of insulin's response in the vehicle ([2]; Experiment 1)	insulin-induced BRET, % of insulin's response in the vehicle ([2]; Experiment 2)	insulin-induced BRET, % of insulin's response in the vehicle ([2]; Experiment 3)	insulin-induced BRET, % of insulin's response in the vehicle ([2]; Experiment 4)	insulin-induced BRET, % of insulin's response in the vehicle ([2]; Experiment 6)	insulin-induced BRET, % of insulin's response in the vehicle ([2]; Experiment 7)	% of maximal BRET (insulin-induced) ([2]; HEK293 cells)	profile on insulin-dependent BRET response in combined treatment (in words) [2, 12]	glucose uptake, specific luminescence signal, Average (HepG2 cells)	% of glucose uptake (HepG2 cells)	insulin-induced AKT phosphorylation, combined treatment (in words) [4]	further results
CSCC[C@H](NC(=O)[C@H](Cc1c[nH]cn1)NC(=O)[C@H](CS)NC(=O)[C@@H]1CCCN1C(=O)[C@H](CC(C)C)NC(=O)[C@@H]1CCCN1C(=O)[C@@H]1CCCN1C(=O)[C@H](CC(C)C)NC(=O)[C@H](CS)NC(=O)[C@H](CS)NC(=O)[C@H](C)NC(=O)[C@@H](NC(=O)[C@H](C)NC(=O)[C@@H]1CCCN1)C(C)C)C(=O)O [Peptide P2] (H-PAVACCLPPLPCHM-OH; N-terminus and C-terminus assumed)	6.9	19.9	32.1	47.3	59.2	68.7	58.9	52.0	76.0	33.7	14.3	58.1	70.5	56.8	52 ± 8% and 52 ± 8^b %	antagonistic	1417300	56 ± 9^b %		insulin-induced BRET, % of insulin's response in the vehicle ([2]; Experiment 5): 54.3; decrease of the insulin-dependent BRET response [2, 12]: ~ 50%; insulin-induced IR phosphorylation, combined treatment (in words) [3]: no inhibitory action
CC(C)C[C@H](N)C(=O)N1CCC[C@H]1C(=O)N[C@H](C(=O)N1CCC[C@H]1C(=O)O)C(C)C [Peptide P6, LPVP] (H-LPVP-OH; N-terminus and C-terminus assumed)	18.3	25.4	35	44.5	45.6	47.9	40.4	140.3	115.3	195.4	142.3	129.2	119.3		135 ± 13^d %	potentiating	3425500	135 – 150% and 136 ± 16^d %	slightly potentiated	
CC(C)[C@H](N)C(=O)N1CCC[C@H]1C(=O)N[C@@H](Cc1ccccc1)C(=O)O [Peptide P7, VPF] (H-Val-Pro-Phe-OH; N-terminus and C-terminus assumed)	7.4	26.1	31.2	44.3	40.4	50.8	41.1	146.7		149.4	179.1	160.6	120.3	124.3	147 ± 11^d %	potentiating	2605600		slightly potentiated	
